Measurements as given in patent US20060211651A1, “Persulfated oligosaccharide acting on selectins and chemokine” (Taisho Pharmaceutical Co., Ltd., priority 2002, published 2006).
pKd: −log10 of the molar value.

Columns and labels:
[1] = biological target: γ-interferon inducible protein-10 (Homo sapiens, UniProt P02778); test: ELISA, biotinylated versican binding to IP-10 in presence of glycosaminoglycan; details: 100 μg/ml glycosaminoglycan; FIG. 5
Description: (§1) A well of a 96 well flat bottom microtiter plate was coated with BSA (5 μg/ml), anti-versican monoclonal antibody 2B1 (5 μg/ml), CD44-Ig (7 μg/ml), L-selectin-Ig (3 μg/ml), P-selectin-Ig (3 μg/ml) or chemokine (1 μg/ml), and then blocked with a phosphate buffered physiological saline containing 3% by weight of BSA. As the above chemokine, secondary lymphoid tissue chemokine, γ-interferon inducible protein-10, platelet factor 4, stromal cell-derived factor-1β [manufactured by Pepro Tech] and stromal cell-derived factor-1α [manufactured by Pepro Tech] were used.
(§2) Thereafter, the plate was washed with the buffer A, and enzyme-linked immunosorbent assay was performed in the same manner as that of the previous report [Kawashima, H. et al., J. Biol. Chem., 275, 35448-35456 (2000)]. Binding was determined by measuring absorbance at 620 nm using alkaline phosphatase-conjugated streptavidin and Blue Phos™ substrate. In FIG. 5, expression of an abscissa axis is the same as that of FIG. 4.

[2] = biological target: T1, stromal cell-derived factor-1β (Homo sapiens, UniProt P48061); test: ELISA, biotinylated versican binding to SDF-1β in presence of glycosaminoglycan; details: 100 μg/ml glycosaminoglycan; FIG. 5
T1 construct: purchased Pepro Tech
T1 sequence (P48061 22-93): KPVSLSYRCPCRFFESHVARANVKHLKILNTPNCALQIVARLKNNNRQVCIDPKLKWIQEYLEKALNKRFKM
Description: as §1, §2

monomeric CD44 = biological target: T2, monomeric CD44 (Homo sapiens, UniProt P16070); test: BIAcore surface plasmon resonance, immobilized glycosaminoglycan vs monomeric CD44; assay type: binding
T2 construct: codons of amino acids positions 172 to 178 of human CD44; Myc-His (from vector pcDNA 3.1/Myc-His(+) B) (C); made in house; host or cells: 293T cells, secreted into conditioned medium and purified on anti-CD44 BRIC 235 Sepharose
T2 sequence (P16070 21-178 limits assumed): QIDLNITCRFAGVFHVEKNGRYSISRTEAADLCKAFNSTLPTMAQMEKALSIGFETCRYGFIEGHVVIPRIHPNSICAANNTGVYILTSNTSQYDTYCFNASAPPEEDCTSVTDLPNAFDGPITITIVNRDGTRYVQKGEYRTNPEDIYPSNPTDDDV
Description: Human-derived CD44 cDNA was prepared by PCR using a sense primer (SEQ ID NO: 1):
Thereafter, the conditioned medium was subjected to immunoaffinity chromatography with anti-CD44 monoclonal antibody BRIC 235-coupled CNBr-activated Sepharose 4B, to obtain monomeric CD44. The resulting soluble CD44 was subjected to SDS-PAGE and silver staining. As a result, the purity of the resulting soluble CD44 was more than 95%.
(§3) Affinity kinetics of the interaction between various CS/DS chains and each of L-selectin, P-selectin, CD44 and chemokine were examined by surface plasmon resonance using BIAcore™ biosensor [manufactured by BIAcore AB].
(§4) All experiments were performed at 25° C. At stages of washing and dissociation, buffer C (20 mM HEPES-NaOH, 0.15M NaCl, 1 mM CaCl2, 1 mM MgCl2, pH6.8) was used as a running buffer.
(§5) First, about 1.8 to 2.0 kiloresonance unit (1 kiloresonance unit=1 ng/mm^2) of streptavidin were covalently immobilized onto B1 sensor chip via a primary amine group using an amine coupling kit [manufactured by Amercham-Bioscience] according to the instruction provided by the manufacturer. The remaining activated groups were blocked with 150 μl of 1M ethanolamine-HCl (pH8.5). Then, each glycosaminoglycan which had been biotinylated at a reducing end was injected to a sensor tip surface by using EZ-link™ biotin-LC-hydrazide [manufactured by Pierce] so as to obtain about 150 resonance unit of an immobilization level, according to the method of Sadir et al. [J. Biol. Chem., 276, 8288-8296 (2001); all teachings of which are hereby incorporated by reference].
(§6) Binding assay was performed by injecting continuously each of various concentrations of secondary lymphoid tissue chemokine, γ-interferon inducible protein-10, stromal cell-derived factor-1β, monomeric L-selectin [manufactured by Genzyme-Techne], monomeric P-selectin [manufactured by Genzyme-Techne] and monomeric CD44, to a glycosaminoglycan-coupled sensor tip at a flow rate of 30 μl/min for 0 to 90 seconds, and then injecting a running buffer thereto. A response in resonance unit was recorded as a function of a time.
(§7) A sensor tip surface was regenerated with 300 μl of 1 M NaCl when chemokine or CD44 was used, or regenerated with 300 μl of 1 M NaCl, and additional 100 μl of 50 mM EDTA (pH8.0), when selectin was used. As a result of regeneration of a sensor tip surface, a remarkable change in a baseline was not observed.
(§8) An affinity kinetic parameter was determined by BIAevaluation 3.0 software [manufactured by Pharmacia Biosensor] using a single site binding model. […] In FIG. 6 and Table 3, SLC denotes secondary lymphoid tissue chemokin, IP-10 denotes γ-interferon inducible protein-10, SDF-1β denotes stromal cell-derived factor-1β, CS E denotes chondroitin sulfate E, and CS A denotes chondroitin sulfate A. In addition, in Table 3, Kd value for the interaction between monomeric CD44 and chondroitin sulfate E is a value calculated from a binding amount at equilibrium, and Kd value of the interaction between CD44 and hyaluronic acid is a value calculated using CD44-Ig.

[3] = biological target: secondary lymphoid tissue chemokine; test: BIAcore surface plasmon resonance, immobilized glycosaminoglycan vs SLC; assay type: binding; details: for pKd / koff / kon: GAG immobilized, 25° C.
Description: as §3, §4, §5, §6, §7, §8

CD44-Ig = test: ELISA, biotinylated versican binding to CD44-Ig in presence of glycosaminoglycan; set-up: species or system human; details: 100 μg/ml glycosaminoglycan; FIG. 5
Chain of CD44-Ig (P16070 21-178 limits assumed): as above
Description: as §1, §2

[4] = CD44 monomeric, GAG immobilized, 25° C.

Chain of γ-interferon inducible protein-10 (P02778 22-98): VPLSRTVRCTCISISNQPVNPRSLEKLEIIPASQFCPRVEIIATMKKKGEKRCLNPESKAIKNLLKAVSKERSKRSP

Substance | inhibition of binding between biotinylated versican and γ-interferon inducible protein-10 [1] | inhibition of binding between biotinylated versican and stromal cell-derived factor-1β [2] | binding of monomeric CD44 to glycosaminoglycan (monomeric CD44; monomeric CD44) | pKd [3] | koff [3] [s⁻¹] | kon [3] [M⁻¹ s⁻¹] | inhibition of binding between biotinylated versican and CD44-Ig (CD44-Ig) | pKd (monomeric CD44; [4]) | koff (monomeric CD44; [4]) [s⁻¹] | kon (monomeric CD44; [4]) [M⁻¹ s⁻¹] | interaction with immobilized glycosaminoglycan (sensorgram) [3] | pKd (monomeric CD44; monomeric CD44, weakly bound, equilibrium value)
chondroitin polysulfate [CPS] | inhibited | inhibited | did not bind | 7.00 | 0.00244 | 24200 | not remarkable |  |  |  |  | 
chondroitin sulfate A [CS A] |  |  |  |  |  |  | inhibited | 4.07 | 0.049 | 576 | did not interact | 
chondroitin sulfate E [CS E] | inhibited | inhibited |  | 7.07 | 0.00356 | 41500 | inhibited |  |  |  | bound | 3.68
dermatan polysulfate [DPS] | inhibited | inhibited | did not bind | 7.49 | 0.000278 | 8640 | inhibited |  |  |  |  | 
